Assay results taken from patent US9796711B2, “Substituted pyrazolo[3,4-b]pyridin-6-carboxylic acids and method of use” (AbbVie S.àr.l., priority 2015, dated 2017).
pEC50: −log10 of the molar value.

Columns and labels:
ΔF508-CFTR [1] = target: T1, ΔF508-CFTR (Homo sapiens, UniProt P13569, DEL508-508); test: CFTR cell surface levels using HRP-tagged ΔF508-CFTR expressing CFBE cells, intrinsic corrector capacity; type: cell-based; conditions: HRP-tagged ΔF508-CFTR CFBE41o- cells, compounds alone (intrinsic corrector capacity), 20 hours at 33° C.; for % Activation: positive control 3 μM corrector; for pEC50: read-out: EC50
T1 construct: host or cells: CFBE41o-, doxycycline-inducible
T1 sequence (P13569 with tags, fused parts or gaps DEL508-508): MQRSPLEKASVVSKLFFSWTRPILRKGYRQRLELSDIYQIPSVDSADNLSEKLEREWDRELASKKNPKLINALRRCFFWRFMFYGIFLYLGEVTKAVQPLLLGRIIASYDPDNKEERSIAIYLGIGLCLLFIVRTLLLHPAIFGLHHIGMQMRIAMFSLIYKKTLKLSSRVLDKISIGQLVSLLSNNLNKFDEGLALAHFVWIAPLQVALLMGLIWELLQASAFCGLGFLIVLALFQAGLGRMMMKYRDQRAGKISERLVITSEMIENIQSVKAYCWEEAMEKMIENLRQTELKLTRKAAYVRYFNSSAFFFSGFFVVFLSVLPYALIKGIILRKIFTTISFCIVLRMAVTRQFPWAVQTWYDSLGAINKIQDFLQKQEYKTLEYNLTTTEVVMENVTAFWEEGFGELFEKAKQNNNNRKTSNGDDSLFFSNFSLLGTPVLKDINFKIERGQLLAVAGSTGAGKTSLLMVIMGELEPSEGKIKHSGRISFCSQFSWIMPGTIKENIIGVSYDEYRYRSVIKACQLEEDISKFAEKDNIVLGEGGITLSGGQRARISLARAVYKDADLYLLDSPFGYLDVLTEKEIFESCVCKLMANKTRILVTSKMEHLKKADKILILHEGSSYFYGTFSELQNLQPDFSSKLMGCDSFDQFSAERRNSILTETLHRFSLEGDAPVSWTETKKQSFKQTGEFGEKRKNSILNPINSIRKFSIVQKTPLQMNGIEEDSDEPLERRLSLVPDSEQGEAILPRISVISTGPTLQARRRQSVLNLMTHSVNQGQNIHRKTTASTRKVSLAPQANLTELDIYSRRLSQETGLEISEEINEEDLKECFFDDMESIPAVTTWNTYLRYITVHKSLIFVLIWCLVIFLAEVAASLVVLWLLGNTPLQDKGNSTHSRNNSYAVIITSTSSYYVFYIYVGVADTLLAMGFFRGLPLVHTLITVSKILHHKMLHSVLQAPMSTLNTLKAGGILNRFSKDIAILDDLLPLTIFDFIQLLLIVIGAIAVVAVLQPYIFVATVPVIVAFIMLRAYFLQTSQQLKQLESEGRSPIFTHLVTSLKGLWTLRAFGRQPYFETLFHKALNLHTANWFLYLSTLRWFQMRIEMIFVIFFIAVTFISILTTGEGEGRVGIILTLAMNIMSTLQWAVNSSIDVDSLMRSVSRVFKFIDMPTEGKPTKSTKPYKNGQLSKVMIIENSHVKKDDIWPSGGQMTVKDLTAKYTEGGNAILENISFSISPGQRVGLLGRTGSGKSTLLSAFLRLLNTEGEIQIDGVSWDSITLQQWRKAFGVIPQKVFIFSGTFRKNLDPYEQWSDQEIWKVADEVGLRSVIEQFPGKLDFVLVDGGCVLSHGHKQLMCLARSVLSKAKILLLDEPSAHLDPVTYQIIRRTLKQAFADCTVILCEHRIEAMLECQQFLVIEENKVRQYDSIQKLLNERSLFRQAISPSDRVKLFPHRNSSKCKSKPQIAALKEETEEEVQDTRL
Method in brief: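 Here the cells express ΔF508-CFTR with horseradish peroxidase inserted in extracellular loop 4, so only rescued channel at the surface gives luminescent signal. Compounds act on their own, 20 h at the reduced temperature of 33 °C; values are percent activity relative to DMSO and a 3 μM corrector.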

ΔF508-CFTR [2] = target: T1, ΔF508-CFTR; test: CFTR cell surface levels using HRP-tagged ΔF508-CFTR expressing CFBE cells, in the presence of a co-corrector; type: cell-based; conditions: HRP-tagged ΔF508-CFTR expressing CFBE cells, in the presence of 3 μM co-corrector; for pEC50: read-out: EC50
Method in brief: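 Cells were seeded with 0.5 μg/mL doxycycline and held 68 h at 37 °C. Test compounds plus 3 μM co-corrector (final 0.1% DMSO) were then added for 20 h at 33 °C. Washed cells received HRP substrate, and luminescence was normalized between DMSO and 3 μM co-corrector controls.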

| Compound | % Activation (ΔF508-CFTR [1]) [%] | pEC50 (ΔF508-CFTR [1]) | % Activation (ΔF508-CFTR [2]) [%] | pEC50 (ΔF508-CFTR [2]) |
| --- | --- | --- | --- | --- |
| CC(C)c1nn(-c2cccc(N3CCCC3)c2)c2nc(C(=O)O)cc(-c3ccc(N(C)C4CCOCC4)cc3)c12 [compound 249, 4-{4-[nethyl(oxan-4-yl)amino]phenyl}-3-(propan-2-yl)-1-[3-(pyrrolidin-1-yl)phenyl]-1H-pyrazolo[3,4-b]pyridine-6-carboxylic acid] | 410.6 | 6.32 | 596.2 | 6.54 |
| CC(C)c1nn(-c2cccc(N3CCCC3)c2)c2nc(C(=O)O)cc(-c3ccc(N(C)C4CCOCC4)nc3)c12 [compound 250, 4-{6-[methyl(oxan-4-yl)amino]pyridin-3-yl}-3-(propan-2-yl)-1[3-(pyrrolidin-1-yl)phenyl]-1H-pyrazolo[3,4-b]pyridine-6-carboxylic acid] | 394.7 | 6.34 | 622.03 | 6.29 |
| CN(c1ccc(-c2cc(C(=O)O)nc3c2c(C2CCC2)nn3-c2cccc(N3CCCC3)c2)cc1)C1CCOCC1 [compound 251, 3-cyclobutyl-4-{4-[methyl(oxan-4-yl)amino]phenyl}-1-[3-(pyrrolidin-1-yl)phenyl]-1H-pyrazolo[3,4-b]pyridine-6-carboxylic acid] | 389.2 | 6.36 | 577.73 | 6.45 |
| CN(c1ccc(-c2cc(C(=O)O)nc3c2c(C2CCC2)nn3-c2cccc(N3CCCC3)c2)cn1)C1CCOCC1 [compound 252, 3-cyclobutyl-4-{6-[methyl(oxan-4-yl)amino]pyridin-3-yl}-1-[3-(pyrrolidin-1-yl)phenyl]-1H-pyrazolo[3,4-b]pyridine-6-carboxylic acid] | 398.4 | 6.16 | 630.25 | 6.30 |
| COCCN(C)c1ccc(-c2cc(C(=O)O)nc3c2c(C(C)C)nn3-c2cccc(N3CCCC3)c2)cn1 [compound 253, 4-{6-[(2-methoxyethyl)(methyl)amino]pyridin-3-yl}-3-(propan-2-yl)-1-[3-(pyrrolidin-1-yl)phenyl]-1H-pyrazolo[3,4-b]pyridine-6-carboxylic acid] | 375.87 | 6.18 | 568.13 | 6.37 |
| CC(C)c1nn(C2CCCCC2)c2nc(C(=O)O)cc(-c3ccc(N(C)C4CCOCC4)cc3)c12 [compound 254, 1-cyclohexyl-4-{4-[methyl(oxan-4-yl)amino]phenyl}-3-(propan-2-yl)-1H-pyrazolo[3,4-b]pyridine-6-carboxylic acid] | 234.6 | 6.21 | 417.67 | 6.48 |
| CC(=O)N1CCC2CN(c3cc(C(=O)O)nc4c3c(C(C)C)nn4-c3cccc(C)c3)CCC21 (stereo not shown) [compound 255, 4-(1-acetyloctahydro-5H-pyrrolo[3,2-c]pyridin-5-yl)-1-(3-methylphenyl)-3-(propan-2-yl)-1H-pyrazolo[3,4-b]pyridine-6-carboxylic acid] | 120.77 | 6.36 | 302.97 | 6.53 |
| Cc1cccc(-n2nc(C(C)C)c3c(N4CCC5C(CCN5CC#N)C4)cc(C(=O)O)nc32)c1 (stereo not shown) [compound 256, 4-[1-(cyanomethyl)octahydro-5H-pyrrolo[3,2-c]pyridin-5-yl]-1-(3-methylphenyl)-3-(propan-2-yl)-1H-pyrazolo[3,4-b]pyridine-6-carboxylic acid] | 180 | 5.48 | 362.25 | 5.69 |
| Cc1cccc(-n2nc(C(C)C)c3c(N4CCC(S(C)(=O)=O)CC4)cc(C(=O)O)nc32)c1 [compound 257, 4-[4-(methanesulfonyl)piperidin-1-yl]-1-(3-methylphenyl)-3-(propan-2-yl)-1H-pyrazolo[3,4-b]pyridine-6-carboxylic acid] | 260.4 | 5.60 | 440.2 | 6.10 |
| Cc1cccc(-n2nc(C(C)C)c3c(N4CC5(CCOCC5)C4)cc(C(=O)O)nc32)c1 [compound 258, 1-(3-methylphenyl)-4-(7-oxa-2-azaspiro[3.5]nonan-2-yl)-3-(propan-2-yl)-1H-pyrazolo[3,4-b]pyridine-6-carboxylic acid] | 169.7 | 5.89 | 364.3 | 6.04 |
| CC(C)c1nn(-c2cccc(N3CCCC3)c2)c2nc(C(=O)O)cc(-c3cnc(N4CCC(C#N)CC4)nc3)c12 [compound 259, 4-[2-(4-cyanopiperidin-1-yl)pyrimidin-5-yl]-3-(propan-2-yl)-1-[3-(pyrrolidin-1-yl)phenyl]-1H-pyrazolo[3,4-b]pyridine-6-carboxylic acid] | 438.95 | 5.95 | 673.9 | 5.99 |
| CC(C)c1nn(-c2cccc(C(F)(F)F)c2)c2nc(C(=O)O)cc(-c3ccc(N4CCC(C#N)CC4)nc3)c12 [compound 260, 4-[6-(4-cyanopiperidin-1-yl)pyridin-3-yl]-3-(propan-2-yl)-1-[3-(trifluoromethyl)phenyl]-1H-pyrazolo[3,4-b]pyridine-6-carboxylic acid] | 326.4 | 6.11 | 554.15 | 6.29 |
| CC(C)c1nn(-c2cccc(C(F)(F)F)c2)c2nc(C(=O)O)cc(-c3ccc(N4CCC(C#N)CC4)cc3)c12 [compound 261, 4-[4-(4-cyanopiperidin-1-yl)phenyl]-3-(propan-2-yl)-1-[3-(trifluoromethyl)phenyl]-1H-pyrazolo[3,4-b]pyridine-6-carboxylic acid] | 314.07 | 6.15 | 519.37 | 6.26 |
| Cc1cccc(-n2nc(C(C)C)c3c(N4CCC5(CCOCC5)C4)cc(C(=O)O)nc32)c1 [compound 262, 1-(3-methylphenyl)-4-(8-oxa-2-azaspiro[4.5]decan-2-yl)-3-(propan-2-yl)-1H-pyrazolo[3,4-b]pyridine-6-carboxylic acid] | 164.4 | 6.04 | 375.95 | 6.07 |
| COC1CCN(c2cc(C(=O)O)nc3c2c(C(C)C)nn3C2CCCCC2)CC1 [compound 264, 1-cyclohexyl-4-(4-methoxypiperidin-1-yl)-3-(propan-2-yl)-1H-pyrazolo[3,4-b]pyridine-6-carboxylic acid] | 213.88 | 6.13 | 428.47 | 6.33 |
| CC(C)c1nn(C2CCCCC2)c2nc(C(=O)O)cc(N3CCCCC3)c12 [compound 265, 1-cyclohexyl-4-(piperidin-1-yl)-3-(propan-2-yl)-1H-pyrazolo[3,4-b]pyridine-6-carboxylic acid] | 132.05 | 5.90 | 397.8 | 5.86 |
| CC(C)c1nn(C2CCCCC2)c2nc(C(=O)O)cc(N3CCC(CO)CC3)c12 [compound 266, 1-cyclohexyl-4-[4-(hydroxymethyl)piperidin-1-yl]-3-(propan-2-yl)-1H-pyrazolo[3,4-b]pyridine-6-carboxylic acid] | 197.55 | 5.90 | 405.3 | 5.98 |
| CC(C)c1nn(-c2cccc(N(C)C)n2)c2nc(C(=O)O)cc(-c3ccc(N4CCOCC4)cc3)c12 [compound 267, 1-[6-(dimethylamino)pyridin-2-yl]-4-[4-(morpholin-4-yl)phenyl]-3-(propan-2-yl)-1H-pyrazolo[3,4-b]pyridine-6-carboxylic acid] | 318.9 | 6.09 | 498.35 | 6.38 |
| CC(C)c1nn(-c2cccc(OC(F)(F)F)c2)c2nc(C(=O)O)cc(-c3ccc(N4CCOCC4)cc3)c12 [compound 269, 4-[4-(morpholin-4-yl)phenyl]-3-(propan-2-yl)-1-[3-(trifluoromethoxy)phenyl]-1H-pyrazolo[3,4-b]pyridine-6-carboxylic acid] | 264.3 | 6.24 | 452.33 | 6.41 |
| CC(C)c1nn(-c2cccc(N(C)C)c2)c2nc(C(=O)O)cc(N3CCC(C(F)(F)F)C3)c12 (stereo not shown) [compound 270, 1-[3-(dimethylamino)phenyl]-3-(propan-2-yl)-4-[3-(trifluoromethyl)pyrrolidin-1-yl]-1H-pyrazolo[3,4-b]pyridine-6-carboxylic acid] | 236.02 | 6.16 | 430.4 | 6.28 |
| Cc1cccc(-n2nc(C(C)C)c3c(N4CCC5(C4)CC5(F)F)cc(C(=O)O)nc32)c1 (stereo not shown) [compound 271, 4-(1,1-difluoro-5-azaspiro[2.4]heptan-5-yl)-1-(3-methylphenyl)-3-(propan-2-yl)-1H-pyrazolo[3,4-b]pyridine-6-carboxylic acid] | 144.2 | 6.03 | 323.5 | 6.40 |
| Cc1cccc(-n2nc(C(C)C)c3c(N4CCC(S(C)(=O)=O)C4)cc(C(=O)O)nc32)c1 (stereo not shown) [compound 272, 4-[3-(methanesulfonyl)pyrrolidin-1-yl]-1-(3-methylphenyl)-3-(propan-2-yl)-1H-pyrazolo[3,4-b]pyridine-6-carboxylic acid] | 135.5 | 5.48 | 319.6 | 5.48 |
